For test [1], the target named is T1, Tyrosine-protein phosphatase non-receptor type 1 (Homo sapiens, UniProt P18031).
T1 sequence (P18031 whole entry): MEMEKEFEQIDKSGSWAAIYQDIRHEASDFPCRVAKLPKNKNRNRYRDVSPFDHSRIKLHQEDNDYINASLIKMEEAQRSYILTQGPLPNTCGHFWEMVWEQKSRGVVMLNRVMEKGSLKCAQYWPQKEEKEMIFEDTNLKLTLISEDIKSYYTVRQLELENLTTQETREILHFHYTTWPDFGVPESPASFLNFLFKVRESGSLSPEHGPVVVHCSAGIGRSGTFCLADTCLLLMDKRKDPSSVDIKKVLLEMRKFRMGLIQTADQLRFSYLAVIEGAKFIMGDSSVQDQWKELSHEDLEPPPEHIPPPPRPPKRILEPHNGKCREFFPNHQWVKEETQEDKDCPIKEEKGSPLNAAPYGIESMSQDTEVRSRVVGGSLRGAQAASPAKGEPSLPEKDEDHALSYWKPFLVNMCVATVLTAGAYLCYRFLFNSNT
Kind of test: Allosteric inhibition of PTP1B (unknown origin) using pNPP as substrate incubated for 30 mins by spectrophotometry.

Test [2] can be described thus: Inhibition of PTP1B N193A/K197A mutant (unknown origin) using pNPP as substrate incubated for 30 mins by spectrophotometry. The arrangement: species or system Homo sapiens.
Test [3] has as its target T2, Tyrosine-protein phosphatase non-receptor type 2 (Homo sapiens, UniProt P17706).
T2 sequence (P17706 whole entry): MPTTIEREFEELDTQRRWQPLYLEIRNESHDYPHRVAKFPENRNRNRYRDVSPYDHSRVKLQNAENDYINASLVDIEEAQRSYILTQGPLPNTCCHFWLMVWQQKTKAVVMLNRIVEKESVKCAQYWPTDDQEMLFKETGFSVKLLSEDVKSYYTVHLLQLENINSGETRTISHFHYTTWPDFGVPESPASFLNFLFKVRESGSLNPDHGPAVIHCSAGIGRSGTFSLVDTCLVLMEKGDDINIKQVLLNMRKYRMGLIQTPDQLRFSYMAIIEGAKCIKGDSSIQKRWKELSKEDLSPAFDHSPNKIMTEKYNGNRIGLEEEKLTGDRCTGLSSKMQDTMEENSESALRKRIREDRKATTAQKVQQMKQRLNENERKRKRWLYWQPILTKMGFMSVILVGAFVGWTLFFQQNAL
The test can be described thus: Inhibition of TCPTP (unknown origin) using pNPP as substrate incubated for 30 mins by spectrophotometry.

Test [4] has as its target T3, Tyrosine-protein phosphatase non-receptor type 11 (Homo sapiens, UniProt Q06124).
T3 sequence (Q06124 whole entry): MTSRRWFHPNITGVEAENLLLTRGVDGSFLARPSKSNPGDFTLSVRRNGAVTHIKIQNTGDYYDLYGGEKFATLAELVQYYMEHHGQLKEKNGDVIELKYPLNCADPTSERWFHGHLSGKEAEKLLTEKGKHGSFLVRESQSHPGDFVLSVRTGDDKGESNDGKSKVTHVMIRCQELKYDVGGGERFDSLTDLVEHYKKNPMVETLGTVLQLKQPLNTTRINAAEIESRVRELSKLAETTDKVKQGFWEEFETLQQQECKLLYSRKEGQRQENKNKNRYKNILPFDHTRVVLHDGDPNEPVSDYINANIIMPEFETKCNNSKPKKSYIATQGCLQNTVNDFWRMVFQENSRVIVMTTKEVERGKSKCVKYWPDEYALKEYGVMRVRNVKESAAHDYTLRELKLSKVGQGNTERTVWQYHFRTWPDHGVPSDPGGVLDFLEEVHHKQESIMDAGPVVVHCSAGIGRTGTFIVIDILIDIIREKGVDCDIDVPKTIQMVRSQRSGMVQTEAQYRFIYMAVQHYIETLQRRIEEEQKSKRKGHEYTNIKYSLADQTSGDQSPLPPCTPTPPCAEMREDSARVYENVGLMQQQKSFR
The test can be described thus: Inhibition of SHP2 (unknown origin) using pNPP as substrate incubated for 30 mins by spectrophotometry.

In general, IC50 refers to the concentration at which inhibition is half-maximal. Higher therefore signals a need for much substance. `CCOc1ccc(C(=O)/C=C/c2cc(O)c(O)c(Br)c2Br)cc1`: the IC50 in test [1] was 3.25 µM; in test [2], 9.18 µM; in test [3], 17.3 µM; in test [4], greater than 20 µM.

For `O=C(/C=C/c1cc(O)c(O)c(Br)c1Br)c1ccc(Cl)cc1`, the IC50 is 2.15 µM in test [1], 12.6 µM in test [2], 9.7 µM in test [3] and greater than 20 µM in test [4].

Regarding `Cc1ccc(C(=O)/C=C/c2cc(O)c(O)c(Br)c2Br)cc1`, the IC50 in test [1] is 2 µM; in test [2], 10.2 µM; in test [3], 10.3 µM; in test [4], greater than 20 µM.

For the compound `COc1ccc(C(=O)/C=C/c2cc(O)c(O)c(Br)c2)cc1Br`, the IC50 in test [1] is 2.45 µM; in test [2] it was 9.07 µM; in test [3], 13.4 µM; in test [4], greater than 20 µM.

For `O=C(/C=C/c1cc(O)c(O)c(Br)c1Br)c1ccccc1Cl`, the IC50 is 2.17 µM in test [1], 10.5 µM in test [2], 5.74 µM in test [3] and greater than 20 µM in test [4].

Turning to `COc1ccc(C(=O)/C=C/c2cc(O)c(O)c(Br)c2Br)cc1Br`, the IC50 was 1.43 µM in test [1], 9.11 µM in test [2], 3.74 µM in test [3] and greater than 20 µM in test [4].

In the case of `O=C(/C=C/c1cc(O)c(O)c(Br)c1Br)c1cccc(Cl)c1`, the IC50 in test [1] is 2.59 µM; in test [2], 12.7 µM; in test [3] it was 8.97 µM; in test [4], greater than 20 µM.

With `O=C(/C=C/c1cc(O)c(O)c(Br)c1Br)c1cccc(C(F)(F)F)c1`, the IC50 in test [1] was 3.59 µM; in test [2] it was 15.7 µM; in test [3], 13.6 µM; in test [4], greater than 20 µM.

`O=C(/C=C/c1cc(O)c(O)c(Br)c1)c1cc(Br)c(O)c(Br)c1`: the IC50 in test [1] is 2.54 µM; in test [2], 12.6 µM; in test [3], 15 µM; in test [4] it was greater than 20 µM.

As for `Cc1ccccc1C(=O)/C=C/c1cc(O)c(O)c(Br)c1Br`, the IC50 in test [1] was 1.71 µM; in test [2], 8.01 µM; in test [3], 9.4 µM; in test [4], greater than 20 µM.

`O=C(/C=C/c1cc(O)c(O)c(Br)c1Br)c1ccc(Cl)c(Cl)c1`: the IC50 is 3.02 µM in test [1], 11.4 µM in test [2], 16 µM in test [3] and greater than 20 µM in test [4].

The record behind these values is ChEMBL document CHEMBL6096654, “Allosteric inhibition of PTP1B by bromocatechol-chalcone derivatives” (Eur J Med Chem, 2025).
